Patent US20220031901A1, “FRAGRANCE COMPOSITION” (Takasago International Corporation, priority 2020, published 2022)

How the values were obtained:
olfactory receptor OR2L3 [1] = target: T1, olfactory receptor OR2L3 (Homo sapiens, UniProt Q8NG85); experiment: Response of olfactory receptor OR2L3 to unpleasant odor-causing substance (luciferase reporter gene assay); format: cell-based; conditions: various concentrations, stimulation 3 hours, HEK293T cells expressing OR2L3; FIGS. 1 to 5
T1 construct: N-terminal 20 amino acid residues of bovine rhodopsin (Rho tag); expressed in transfected cells; host or cells: HEK293T
T1 sequence (Q8NG85 1-312): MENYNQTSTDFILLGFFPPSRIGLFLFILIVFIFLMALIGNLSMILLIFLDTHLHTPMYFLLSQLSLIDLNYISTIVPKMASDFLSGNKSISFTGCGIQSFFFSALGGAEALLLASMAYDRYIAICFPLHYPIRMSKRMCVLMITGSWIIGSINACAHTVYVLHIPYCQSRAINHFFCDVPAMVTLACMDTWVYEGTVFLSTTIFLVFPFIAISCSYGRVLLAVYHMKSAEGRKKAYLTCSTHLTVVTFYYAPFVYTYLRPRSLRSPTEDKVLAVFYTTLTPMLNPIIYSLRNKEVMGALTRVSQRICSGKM
Experimental: (§1) A human olfactory receptor gene was obtained by cloning according to the PCR method using Human Genomic DNA: Female (Promega) based on the sequence information registered in GenBank. The N-terminal 20 amino acid residues of bovine rhodopsin were incorporated into a pME18S vector, and the obtained human olfactory receptor gene was further incorporated downstream thereof, thereby obtaining a human olfactory receptor gene expression vector.
(§2) 0.05 μg of the human olfactory receptor gene expression vector, 0.01 μg of an RTP1S vector, 0.01 μg of a firefly luciferase vector pGL4.29 containing a cAMP-responsive sequence promoter (Promega), and 0.005 μg of a Renilla luciferase vector pGL4.74 containing a thymidine kinase promoter (Promega) were dissolved in 10 μL of Opti-MEM I (gibco) to obtain a gene solution (for one well). 100 μL of HEK293T cells were seeded in each well of a 96-well plate (Biocoat manufactured by Corning) so as to reach confluency after 24 hours. According to the directions for use of Lipofectamine 3000, by the lipofection method, the gene solution was added to each well to perform gene transfer to cells, and culturing was performed under 5% carbon dioxide atmosphere at 37° C. for 24 hours.
(§3) After removing the culture medium, 50 μL of CD293 medium (gibco) (20 μM L-glutamine added) including measured concentration of an aroma compound as a sample was added to each well, and stimulation was performed for 3 hours. After that, the luciferase activity was measured according to the directions for use of Dual-Luciferase Reporter Assay System (Promega). The response strength of the olfactory receptor was expressed by the Fold Increase value, which is obtained by dividing the luciferase activity generated by stimulation of the aroma compound by the luciferase activity generated in the test system not including the aroma compound.
Responses of the olfactory receptor OR2L3 to skatole, indole, α-terpineol, 4-terpineol or p-methylacetophenone as a typical example of the unpleasant odor-causing substance were measured with various concentrations by means of luciferase reporter gene assay. […] Meanwhile, in the Mock test (using cells in which OR2L3 was not expressed), no response was shown. That is, it was shown that OR2L3 specifically responds to the respective unpleasant odor-causing substances.

[2] = Sensory evaluation of ability to suppress model fecal odor by fragrance compositions; design: species or system human; conditions: substance blended in the fragrance composition (floral-fruity base); result in words
Experimental: Fragrance compositions of Fragrance 1 to Fragrance 41 were prepared according to the formulations in Tables 2-6 below. DPG in the tables means dipropylene glycol. […] Note that the way of dividing the group and the ratio in the group are optional and not limited by Table 7. The floral-fruity base in Tables 2-6 was prepared according to Table 8.
Regarding these fragrance compositions, the ability to suppress the unpleasant odor was confirmed by means of sensory evaluation. As the unpleasant odor, a model fecal odor containing skatole, indole, butyric acid, p-cresol and dimethyl trisulfide (Lin et al., Environ. Sci. Technol., 2013, 47(14), pp. 7876-7882) was diluted 100-fold, and 10 μL thereof was dropped on a cotton ball, and as a test substance, 1 μL of one of Fragrance 1 to Fragrance 41 was dropped on the cotton ball. Then the cotton ball was put into a plastic bottle (OZO-40 manufactured by Takemoto Yohki Co., Ltd.). The bottle was allowed to stand at room temperature for 1 hour to sufficiently volatilize odor molecules therein. The sensory evaluation test was conducted by a panel consisting of 20 persons, who made evaluation as follows: the unpleasantness in the case where the unpleasant odor was dropped solely was rated as −3, and the unpleasantness in the case where the test substance was mixed was rated as from −4 (extremely unpleasant) to +4 (extremely pleasant). The average value was calculated from obtained numerical values.

olfactory receptor OR2L3 [3] = target: T1, olfactory receptor OR2L3; experiment: Effect of suppressing the response of OR2L3 to unpleasant odor (luciferase reporter gene assay); format: cell-based; conditions: for Effect of suppressing the response of OR2L3 to skatole: test substance mixed with skatole, ratio of Fold Increase value, FIGS. 6 to 8; for Effect of suppressing the response of OR2L3 to indole: test substance mixed with indole, FIGS. 9 to 11
Experimental: as §1, §2, §3
With respect to Group A, the effect of suppressing the response of OR2L3 that strongly responded to unpleasant odors was measured by means of luciferase reporter gene assay. In luciferase reporter gene assay, skatole and Guava coeur (registered trademark) were used by being mixed with a sample. The Fold Increase value in the test in which Guava coeur was not mixed was regarded as 1, and the ratio of the Fold Increase value in the test in which Guava coeur was mixed was obtained.
Guava coeur in the evaluation of the effect of suppressing the response of OR2L3 was replaced by Dextramber (registered trademark), and the test was conducted in the same manner. […] Similarly, Guava coeur was replaced by Hindinol (registered trademark) and the test was conducted.
Regarding the unpleasant odor in the evaluation of the effect of suppressing the response of OR2L3, skatole was replaced by indole, and the test was conducted in the same manner.
In the evaluation of the effect of suppressing the response of OR2L3, the test was further conducted using combinations in which Guava coeur was replaced by another material of Group A and the skatole as the unpleasant odor was replaced by α-terpineol, 4-terpineol or p-methylacetophenone.

[4] = Sensory evaluation of unpleasant odor suppression ability of Group A; design: species or system human; conditions: for Indole strength / Skatole strength: average of 20 panelists, scale 0 (not smelled) to 10 (very strongly), unpleasant odor alone = 8, 1 hour; for Indole strength: 10 μL indole diluted 100-fold + 1 μL test substance; for Skatole strength: 10 μL skatole diluted 100-fold + 1 μL test substance; for Effect of suppressing the unpleasant odors (skatole, indole): sensory evaluation, result in words
Experimental: The unpleasant odor suppression ability of test substances having activity to inhibit receptor action was confirmed by sensory evaluation. A cotton ball on which 10 μL of skatole or indole diluted 100-fold with triethyl citrate as an unpleasant odor and 1 μL of a test substance were dropped was put into a plastic bottle (OZO-40 manufactured by Takemoto Yohki Co., Ltd.). The bottle was allowed to stand at room temperature for 1 hour to sufficiently volatilize odor molecules therein. The sensory evaluation test was conducted by a panel consisting of 20 persons, who made evaluation as follows: the odor strength in the case where the unpleasant odor was dropped solely was rated as 8, and the unpleasant odor strength in the case where the test substance was mixed was rated as from 0 (the unpleasant odor is not smelled) to 10 (the unpleasant odor is smelled very strongly). The average value was calculated from obtained numerical values.

Row | Molecule | Response of the olfactory receptor OR2L3 (Fold Increase value) (olfactory receptor OR2L3 [1]) | Suppression of the unpleasantness of the model fecal odor [2] | Effect of suppressing the response of OR2L3 to skatole (olfactory receptor OR2L3 [3]) | Indole strength [4] | Skatole strength [4] | Effect of suppressing the unpleasant odors (skatole, indole) [4] | Effect of suppressing the response of OR2L3 to indole (olfactory receptor OR2L3 [3])
1 | CC1=CCC(C(C)(C)O)CC1 (stereo not drawn) [α-terpineol] | concentration-dependent responses | – | – | – | – | – | –
2 | methyl fenchol [Humus Ether] | – | suppressed the unpleasantness | suppresses | – | – | – | –
3 | CC1=CCC(O)(C(C)C)CC1 (stereo not shown) [Fragrance 4-terpineol, 4-terpineol] | concentration-dependent responses | – | – | – | – | – | –
4 | CC1CCC(C(C)(C)S)C(=O)C1 (stereo not shown) [Ringonol, p-mentha-8-thiol-3-one] | – | suppress the unpleasantness | – | 3.7 | 3.9 | suppress the unpleasant odors | –
5 | O=C1CCCC=CCCCCCCCCCC1 [Ambretone, 5-cyclohexadecenone] | – | suppress the unpleasantness | – | 3.6 | 4.2 | suppress the unpleasant odors | –
6 | CCCC(O)CCC1C(C)CCCC1(C)C (stereo not shown) [Dextramber, 1-(2,2,6-trimethylcyclohexyl)hexan-3-ol] | – | suppress the unpleasantness | concentration-dependently reducing the response | 3.9 | 4.0 | suppress the unpleasant odors | concentration-dependently reducing the response
7 | CCCCCCOC(=O)c1ccccc1O [Hexyl salicylate, hexyl salicylate, reference compound] | – | – | did not suppress | 6.7 | 6.9 | – | –
8 | CC(=CCC1CC=C(C)C1(C)C)CO (stereo not shown) [Hindinol, 2-methyl-4-(2,2,3-trimethyl-3-cyclopentenyl)-2-buten-1-ol] | – | suppress the unpleasantness | concentration-dependently reducing the response | 4.1 | 3.6 | suppress the unpleasant odors | concentration-dependently reducing the response
9 | CCOC(=O)C(C)C(C)S (stereo not shown) [Guava coeur, ethyl 3-mercapto-2-methylbutyrate] | – | suppress the unpleasantness | concentration-dependently reducing the response | 3.3 | 3.0 | suppress the unpleasant odors | concentration-dependently reducing the response
10 | Cc1c[nH]c2ccccc12 [skatole] | concentration-dependent responses | – | – | – | – | – | –
11 | CC(=O)c1ccc(C)cc1 [p-methylacetophenone] | concentration-dependent responses | – | – | – | – | – | –
12 | CC(C)(C)C1CCC(O)CC1 (stereo not shown) [4-t-butylcyclohexanol, reference compound] | – | – | did not suppress | 6.0 | 6.3 | – | –
13 | c1ccc2[nH]ccc2c1 [indole] | concentration-dependent responses | – | – | – | – | – | –
14 | CC(c1ccccc1)C1CC1C(C)(C)O (stereo not shown) [Pamplefix, dimethyl-2-(1-phenylethyl)cyclopropylmethanol] | – | suppress the unpleasantness | – | 2.4 | 2.5 | suppress the unpleasant odors | –
